Drawing on ChEMBL document CHEMBL4627368, “Acylhydrazones as isoniazid derivatives with multi-target profiles for the treatment of Alzheimer's disease: Radical scavenging, myeloperoxidase/acetylcholinesterase inhibition and biometal chelation” (Bioorg Med Chem, 2020), this text covers Activity, IC50 and inhibition for 18 compounds.

Assay [1] in a line: Antioxidant activity assessed as DPPH radical scavenging activity at 100 uM after 30 mins (reference value: 1.9 +/- 1.2%). Format: functional.
Assay [2] in a line: Antioxidant activity assessed as DPPH radical scavenging activity after 30 mins. Format: functional. Background: Loss of DPPH colour is used to gauge radical scavenging.
The species entered for the next assay is Rattus norvegicus. As to the kind of experiment: Inhibition of rat bone marrow myeloperoxidase using H2O2 as substrate at 10 uM after 20 mins by TMB based method (reference value: - 1.4 +/- 12.7%).
A short description of assay [3]: Inhibition of rat bone marrow myeloperoxidase using H2O2 as substrate after 20 mins by TMB based method.
Assay [4] has as its target Acetylcholinesterase (Electrophorus electricus) (UniProt O42275). As to the kind of experiment: Inhibition of Electrophorus electricus AChE at 100 uM using acetylthiocholine iodide as substrate preincubated for 30 mins followed by substrate addition and measured after 10 mins by Ellman's method.
The nature of assay [5]: Metal chelating activity assessed as compound-Ca2+ complex formation at 20 uM in presence of CaCl2 after 2 hrs by UV-visible spectrophotometric analysis.
Assay [6] in a line: Metal chelating activity assessed as compound-Cu2+ complex formation at 20 uM in presence of Cucl2 after 2 hrs by UV-visible spectrophotometric analysis.
Assay [7] in a line: Metal chelating activity assessed as compound-Mg2+ complex formation at 20 uM in presence of MgCl2 after 2 hrs by UV-visible spectrophotometric analysis.
Assay [8] in a line: Metal chelating activity assessed as compound-Zn2+ complex formation at 20 uM in presence of ZnCl2 after 2 hrs by UV-visible spectrophotometric analysis.
Assay [9] is described as follows: Metal chelating activity assessed as compound-Fe2+ complex formation at 20 uM in presence of FeCl2 after 2 hrs by UV-visible spectrophotometric analysis.
Assay [10] can be described thus: Metal chelating activity assessed as compound-Fe2+ complex stoichiometry ratio of 2:1 at 20 uM in presence of FeCl2 after 2 hrs by Job's plot analysis.
The nature of assay [11]: Metal chelating activity assessed as compound-Zn2+ complex stoichiometry ratio of 2:1 at 20 uM in presence of ZnCl2 after 2 hrs by Job's plot analysis.
The target of assay [12] is Acetylcholinesterase (Electrophorus electricus) (UniProt O42275). As to the kind of experiment: Non-competitive mixed inhibition of Electrophorus electricus AChE using acetylthiocholine iodide as substrate preincubated for 30 mins followed by substrate addition and measured after 10 mins by Lineweaver-Burk plot analysis.
Sequence of Acetylcholinesterase (Electrophorus electricus) (O42275 24-633 limits assumed): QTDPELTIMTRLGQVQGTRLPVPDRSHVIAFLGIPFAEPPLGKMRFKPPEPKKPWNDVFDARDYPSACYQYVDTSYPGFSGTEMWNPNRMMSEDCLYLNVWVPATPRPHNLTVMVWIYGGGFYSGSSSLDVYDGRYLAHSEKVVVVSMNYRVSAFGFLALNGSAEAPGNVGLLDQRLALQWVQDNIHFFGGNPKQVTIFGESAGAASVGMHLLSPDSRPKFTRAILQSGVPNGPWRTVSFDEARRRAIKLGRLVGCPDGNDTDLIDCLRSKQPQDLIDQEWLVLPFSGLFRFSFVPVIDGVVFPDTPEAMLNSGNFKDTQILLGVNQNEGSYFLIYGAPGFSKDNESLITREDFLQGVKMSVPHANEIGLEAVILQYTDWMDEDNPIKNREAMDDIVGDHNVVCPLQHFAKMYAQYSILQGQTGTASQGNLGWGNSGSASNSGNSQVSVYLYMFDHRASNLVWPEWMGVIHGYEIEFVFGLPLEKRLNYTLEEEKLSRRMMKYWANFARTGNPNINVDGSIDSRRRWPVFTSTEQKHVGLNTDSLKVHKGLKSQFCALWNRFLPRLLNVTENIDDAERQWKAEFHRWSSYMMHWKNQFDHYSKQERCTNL

Activity calls are given as the source filed them. The calls are words filed in the database; no cut-off is given here.

One may read the IC50 as the concentration needed to halve the response being measured. Usually inhibition stands for the relative decrease from the control value, in per cent. `NNC(=O)c1ccncc1` [ISONIAZID]: the Activity in [1] worked out at 91.3%. Also, the IC50 in assay [2] was 22.9 µM; in assay [3], 3.9 µM. Besides, the results for the inhibition (in the assay filed under Rattus norvegicus; in assay [4]) were 99% and 5.8%, respectively.
As to `O=C(N/N=C/c1ccc(F)cc1)c1ccncc1`, in assay [1], the Activity stood at 8.1%. The inhibition was 4.6% in the assay listed under Rattus norvegicus and 16.3% in [4].
For `O=C(N/N=C/c1ccccc1O)c1ccncc1`, in [1], the Activity was found to be 5.3%. Further, the inhibition came to 45.3% in the assay filed under Rattus norvegicus and 3% in assay [4].
Taken in the same sequence, the figures for `CCN(C)C(=O)Oc1cccc([C@H](C)N(C)C)c1` were 0.2%, 17.1% and 59.6%.
`O=C(N/N=C/c1coc2ccccc2c1=O)c1ccncc1`: the Activity in assay [1] was 82.2%. The IC50 in [2] worked out at 42.4 µM; in assay [3], 5.3 µM. Also, the figures for the inhibition (in the assay listed under Rattus norvegicus; in assay [4]) were 80.1% and 54.2%, respectively. The outcome in [5] and in [7] was inactive. For the same compound, the result in [6], in assay [8], in assay [9], in assay [10] and in [11] was Active. Moreover, the inhibition entry in [12] is “Active”.
Take `O=C(N/N=C/c1ccc([N+](=O)[O-])cc1)c1ccncc1`: the Activity in [1] is 2.5%. Also, the inhibition was determined as 32% in the assay filed under Rattus norvegicus and 12.7% in assay [4].
In the case of `O=c1c(O)c(-c2ccc(O)c(O)c2)oc2cc(O)cc(O)c12` [QUERCETIN], the Activity in [1] was 96.3%. The IC50 in [2] stood at 15.3 µM. Moreover, in the assay listed under Rattus norvegicus, the inhibition was 96.3%.
With `O=C(N/N=C/c1ccc(Cl)c(Cl)c1)c1ccncc1`, the Activity in assay [1] worked out at 3.9%. Also, the figures for the inhibition (in the assay filed under Rattus norvegicus; in [4]) were -2.4% and 14%, respectively.
With `O=C(N/N=C/c1ccc(O)cc1)c1ccncc1`, the Activity in assay [1] is 28.7%. Also, the inhibition in [4] was 10%.
Turning to `COc1ccc(/C=N/NC(=O)c2ccncc2)cc1`, in [1], the Activity came to 2.4%. The inhibition in the assay filed under Rattus norvegicus was 6%; in assay [4] it was 8%.
In the same order, the values of `O=C(N/N=C/c1cccc([N+](=O)[O-])c1)c1ccncc1` are 2%, -10% and 36.2%.
In the case of `CN(C)c1ccc(/C=N/NC(=O)c2ccncc2)cc1` [N'-(4-DIMETHYLAMINOBENZYLIDENE)ISONICOTINOHYDRAZIDE], the Activity in [1] is 6.3%. Moreover, the inhibition in the assay filed under Rattus norvegicus turned out to be 96.1%; in [4] it was 6.9%. In addition, in assay [3], the midpoint of inhibition, the IC50, lay at 1.4 µM.
In the same order, the values of `O=C(N/N=C/c1c[nH]c2ccccc12)c1ccncc1` are 28.8%, 82.2%, 5.5% and 1.5 µM.
As to `O=C(N/N=C/c1cc(O)ccc1O)c1ccncc1`, the Activity in assay [1] was 92.4%. For the same compound, the IC50 was 18.3 µM in assay [2] and 4.8 µM in assay [3]. Besides, the inhibition in the assay filed under Rattus norvegicus worked out at 100%; in [4] it was 0.3%.
Regarding `O=C(N/N=C/c1cc(Br)ccc1O)c1ccncc1`, the Activity in assay [1] was 3.9%. Moreover, the inhibition in the assay filed under Rattus norvegicus is 90%; in [4], 6.8%. Also, the half-maximal inhibitory concentration (IC50) in assay [3] is 4.3 µM.
Turning to `COc1cc(/C=N/NC(=O)c2ccncc2)ccc1O` [FTIVAZIDE], the Activity in assay [1] was found to be 76.7%. Moreover, the IC50 in [2] came out at 33.6 µM. Besides, the inhibition worked out at 17.3% in the assay listed under Rattus norvegicus and 23.1% in assay [4].
With `O=C(N/N=C/c1ccccc1)c1ccncc1`, in assay [1], the Activity turned out to be 3.3%. Further, the inhibition in the assay filed under Rattus norvegicus turned out to be 5.1%; in assay [4], 16.5%.
In the same order, the values of `O=C(N/N=C/c1ccccn1)c1ccncc1` are -0.6%, 0.3% and 24.5%.
